Our source for the IC50 values is patent US9957264B2 (Merck Sharp & Dohme Corp., priority 2013, dated 2018).

The target in assay [1] is JAK2 (recombinant purified GST-tagged catalytic domain) (Homo sapiens (Human), UniProt O60674). As to the kind of experiment: Jak Biochemical HTRF Assay (JAK2). The following applies: [ATP] 8.5 μM.
Assay [2] concerns the target JAK1 (recombinant purified GST-tagged catalytic domain) (Homo sapiens (Human), UniProt P23458). Briefly: Jak Biochemical HTRF Assay (JAK1). Particulars: [ATP] 31.8 μM. The method, boiled down: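 GST-tagged human catalytic domains of JAK1 or JAK2 phosphorylated a biotinylated peptide substrate for 120 min at room temperature after ATP addition. Reaction quenched with EDTA stop buffer containing streptavidin-Dylight 650 and Eu-pY20 antibody; HTRF 665/615 nm ratio normalized to untreated controls, IC50 from 4-parameter fit.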

Where only a bound is given, the exact number is not on record here.

JAK1 (recombinant purified GST-tagged catalytic domain), sequence (P23458 875-1153): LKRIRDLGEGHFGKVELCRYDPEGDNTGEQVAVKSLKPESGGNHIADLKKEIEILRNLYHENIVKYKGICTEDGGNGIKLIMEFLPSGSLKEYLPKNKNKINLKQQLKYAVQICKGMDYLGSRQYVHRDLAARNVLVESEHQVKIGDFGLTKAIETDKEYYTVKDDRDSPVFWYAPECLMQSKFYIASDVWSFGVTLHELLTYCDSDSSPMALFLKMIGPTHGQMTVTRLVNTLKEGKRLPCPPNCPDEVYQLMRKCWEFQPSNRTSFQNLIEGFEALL
JAK2 (recombinant purified GST-tagged catalytic domain), sequence (O60674 849-1124): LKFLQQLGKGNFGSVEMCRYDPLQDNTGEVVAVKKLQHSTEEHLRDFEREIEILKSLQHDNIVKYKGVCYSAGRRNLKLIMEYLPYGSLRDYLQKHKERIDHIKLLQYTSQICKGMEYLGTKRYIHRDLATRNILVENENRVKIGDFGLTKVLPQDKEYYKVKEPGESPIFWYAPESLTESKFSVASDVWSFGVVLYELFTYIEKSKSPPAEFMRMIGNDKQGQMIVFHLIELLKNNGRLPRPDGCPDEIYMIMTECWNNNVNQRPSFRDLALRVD

On to `CC(C)(C)OC(=O)[C@@H]1CC[C@@](CC#N)(n2nc(Nc3ccc4c(c3)CN(CC(F)(F)F)S4(=O)=O)c3c(=O)[nH]ccc32)CO1` [Example 5-44, (2S,5S)-tert-butyl 5-(cyanomethyl)-5-(3-((1,1-dioxido-2-(2,2,2-trifluoroethyl)-2,3-dihydrobenzo[d]isothiazol-5-yl)amino)-4-oxo-4,5-dihydro-1H-pyrazolo[4,3-c]pyridin-1-yl)tetrahydro-2H-pyran-2-carboxylate], for which the results for the IC50 in assay [1] and in assay [2] were 0.37 nM and 0.14 nM, respectively.

As for `N#CC[C@@]1(n2nc(Nc3ccc(C(N)C(F)(F)F)cc3)c3c(=O)[nH]ccc32)CCCOC1` (single isomer, unassigned) [Example 5-187, {(3S)-3-[3-({4-[(1R or 1S)-1-amino-2,2,2-trifluoroethyl]phenyl}amino)-4-oxo-4,5-dihydro-1H-pyrazolo[4,3-c]pyridin-1-yl]tetrahydro-2H-pyran-3-yl}acetonitrile], the IC50 in assay [1] was found to be 0.58 nM; in assay [2], 0.19 nM.

In the case of `CC1(C)C(=O)Nc2cc(Nc3nn([C@]4(CC#N)CCCOC4)c4cc[nH]c(=O)c34)ccc21` [Example 21-4, [(3S)-3-{3-[(3,3-dimethyl-2-oxo-2,3-dihydro-1H-indol-6-yl)amino]-4-oxo-4,5-dihydro-1H-pyrazolo[4,3-c]pyridin-1-yl}tetrahydro-2H-pyran-3-yl]acetonitrile], the IC50 in assay [1] was found to be 0.19 nM; in assay [2] it was 0.09 nM.

As for `CC(C)(C)OC(=O)[C@@H]1CC[C@@](CC#N)(n2nc(Nc3ccc(C(C)(O)C(F)(F)F)cc3)c3c(=O)[nH]ccc32)CO1` (single isomer, unassigned) [Example 5-170, (2S,5S)-tert-butyl 5-(cyanomethyl)-5-(4-oxo-3-((4-((S or R)-1,1,1-trifluoro-2-hydroxypropan-2-yl)phenyl)amino)-4,5-dihydro-1H-pyrazolo[4,3-c]pyridin-1-yl)tetrahydro-2H-pyran-2-carboxylate], the IC50 in assay [1] worked out at 0.48 nM; in assay [2] it was 0.14 nM.

Take `CC(C)(C)N[C@H](c1ccc(Nc2nn([C@]3(CC#N)CCOC[C@@H]3F)c3cc[nH]c(=O)c23)cc1)C(F)(F)F` (single isomer, unassigned) [Example 5-269, 2-((3R,4R or 3S,4S)-4-(3-((4-((R or S)-1-(tert-butylamino)-2,2,2-trifluoroethyl)phenyl)amino)-4-oxo-4,5-dihydro-1H-pyrazolo[4,3-c]pyridin-1-yl)-3-fluorotetrahydro-2H-pyran-4-yl)acetonitrile]: the IC50 in assay [1] was found to be 0.09 nM; in assay [2] it was 0.11 nM.

With `CSC(C)C(=O)N1CCC(CC#N)(n2nc(Nc3ccc(S(=O)(=O)N(C)C)cc3)c3c(=O)[nH]ccc32)CC1` (stereo not drawn) [Example 9-24, 4-((1-(4-(cyanomethyl)-1-(2-(methylthio)propanoyl)piperidin-4-yl)-4-oxo-4,5-dihydro-1H-pyrazolo[4,3-c]pyridin-3-yl)amino)-N,N-dimethylbenzenesulfonamide], the half-maximal inhibitory concentration (IC50) turned out to be 0.36 nM in assay [1] and 0.14 nM in assay [2].

For the molecule `N#CC[C@]1(n2nc(Nc3ccc(Cl)c(F)c3)c3c(=O)[nH]ccc32)CC[C@@H](NC2CCCCC2)CC1` [Example 18-22, Cis 2-(1-(3-((4-chloro-3-fluorophenyl)amino)-4-oxo-4,5-dihydro-1H-pyrazolo[4,3-c]pyridin-1-yl)-4-(cyclohexylamino)cyclohexyl)acetonitrile], the IC50 is above 1500 nM in assay [1] and 20.5 nM in assay [2].

Regarding `CC(C)(C)OC(=O)N1CCC(CC#N)(n2nc(Nc3ccc(S(=O)(=O)N4CCOCC4)cc3)c3c(=O)[nH]ccc32)CC1` [Example 5-294, tert-butyl 4-(cyanomethyl)-4-(3-((4-(morpholinosulfonyl)phenyl)amino)-4-oxo-4,5-dihydro-1H-pyrazolo[4,3-c]pyridin-1-yl)piperidine-1-carboxylate], the IC50 was found to be 0.37 nM in assay [1] and 0.22 nM in assay [2].

In the case of `N#CC[C@@]1(n2nc(Nc3ccc(C(N4CCCC4)C(F)(F)F)cc3)c3c(=O)[nH]ccc32)CCCOC1` (single isomer, unassigned) [Example 5-199, {(3S)-3-[4-oxo-3-({4-[(1S or 1R)-2,2,2-trifluoro-1-pyrrolidin-1-ylethyl]phenyl}amino)-4,5-dihydro-1H-pyrazolo[4,3-c]pyridin-1-yl]tetrahydro-2H-pyran-3-yl}acetonitrile], the figures for the IC50 in assay [1] and in assay [2] were 0.33 nM and 0.15 nM, respectively.

In the case of `CCN(CC)S(=O)(=O)c1ccc(Nc2nn(C3(CC#N)CCCC3)c3cc[nH]c(=O)c23)cc1` [Example 5-136, 4-((1-(1-(cyanomethyl)cyclopentyl)-4-oxo-4,5-dihydro-1H-pyrazolo[4,3-c]pyridin-3-yl)amino)-N,N-diethylbenzenesulfonamide], the IC50 in assay [1] came to 1.01 nM; in assay [2] it was 0.56 nM.

Turning to `Cc1cc(Nc2nn(C3(CC#N)CCN(c4ccc(C#N)cn4)CC3)c3cc[nH]c(=O)c23)ccc1C(=O)N1CCSCC1` [Example 15-5, 6-(4-(cyanomethyl)-4-(3-((3-methyl-4-(thiomorpholine-4-carbonyl)phenyl)amino)-4-oxo-4,5-dihydro-1H-pyrazolo[4,3-c]pyridin-1-yl)piperidin-1-yl)nicotinonitrile], the IC50 amounted to 0.17 nM in assay [1] and 0.15 nM in assay [2].

Regarding `CN(C)S(=O)(=O)c1ccc(Nc2nn(C3(CC#N)CCN(C(=O)CN4CCCC4=O)CC3)c3cc[nH]c(=O)c23)cc1` [Example 9-19, 4-[(1-{4-(cyanomethyl)-1-[(2-oxopyrrolidin-1-yl)acetyl]piperidin-4-yl}-4-oxo-4,5-dihydro-1H-pyrazolo[4,3-c]pyridin-3-yl)amino]-N,N-dimethylbenzenesulfonamide], the IC50 in assay [1] is 3.14 nM; in assay [2] it was 0.26 nM.

As to `COC(=O)N1CCC(CC#N)(n2nc(Nc3ccc(F)cc3)c3c(=O)[nH]ccc32)CC1` [Example 5-146, methyl 4-(cyanomethyl)-4-(3-((4-fluorophenyl)amino)-4-oxo-4,5-dihydro-1H-pyrazolo[4,3-c]pyridin-1-yl)piperidine-1-carboxylate], the IC50 in assay [1] was 2 nM; in assay [2], 0.3 nM.

For the molecule `N#CC[C@]1(n2nc(Nc3ccc(Cl)c(F)c3)c3c(=O)[nH]ccc32)CC[C@@H](Nc2ccccc2)CC1` [Example 18-25, Cis 2-(1-(3-((4-chloro-3-fluorophenyl)amino)-4-oxo-4,5-dihydro-1H-pyrazolo[4,3-c]pyridin-1-yl)-4-(phenylamino)cyclohexyl)acetonitrile], the IC50 in assay [1] is above 1500 nM; in assay [2], 70.2 nM.

Regarding `CC(C)(C)OC(=O)N1CCC(CC#N)(n2nc(Nc3cc(Cn4ccnn4)cc(Cn4ccnn4)c3)c3c(=O)[nH]ccc32)CC1` [Example 5-62, tert-butyl 4-(3-(3,5-bis((1H-1,2,3-triazol-1-yl)methyl)phenylamino)-4-oxo-4,5-dihydropyrazolo[4,3-c]pyridin-1-yl)-4-(cyanomethyl)piperidine-1-carboxylate], the IC50 was 0.32 nM in assay [1] and 0.31 nM in assay [2].

With `Cc1cccc(Nc2nn(C3(CC#N)CCN(C(=O)OC(C)(C)C)CC3)c3cc[nH]c(=O)c23)c1` [Example 5-65, tert-butyl 4-(3-(m-toluidino)-4-oxo-4,5-dihydropyrazolo[4,3-c]pyridin-1-yl)-4-(cyanomethyl)piperidine-1-carboxylate], the IC50 was found to be 3.22 nM in assay [1] and 0.21 nM in assay [2].

For the molecule `Cc1cc(Nc2nn([C@]3(CC#N)CC[C@@H](C(=O)OC(C)(C)C)OC3)c3cc[nH]c(=O)c23)ccc1C(=O)N1CCOC(C)(C)C1` [Example 5-220, (2S,5S)-tert-butyl 5-(cyanomethyl)-5-(3-((4-(2,2-dimethylmorpholine-4-carbonyl)-3-methylphenyl)amino)-4-oxo-4,5-dihydro-1H-pyrazolo[4,3-c]pyridin-1-yl)tetrahydro-2H-pyran-2-carboxylate], the values for the IC50 in assay [1] and in assay [2] were 0.19 nM and 0.14 nM, respectively.

For `CC(C)(C)OC(=O)[C@@H]1CC[C@@](CC#N)(n2nc(Nc3ccc(C4(C(F)(F)F)CCNC4)cc3)c3c(=O)[nH]ccc32)CO1` (single isomer, unassigned) [Example 5-284, (2S,5S)-tert-butyl 5-(cyanomethyl)-5-(4-oxo-3-((4-((R or S)-3-(trifluoromethyl)pyrrolidin-3-yl)phenyl)amino)-4,5-dihydro-1H-pyrazolo[4,3-c]pyridin-1-yl)tetrahydro-2H-pyran-2-carboxylate], the values for the IC50 in assay [1] and in assay [2] were 0.24 nM and 0.15 nM, respectively.

On to `CN(C(C)(C)C)S(=O)(=O)c1ccc(Nc2nn(C3(CC#N)CCOCC3)c3cc[nH]c(=O)c23)cc1` [Example 5-253, N-(tert-butyl)-4-((1-(4-(cyanomethyl)tetrahydro-2H-pyran-4-yl)-4-oxo-4,5-dihydro-1H-pyrazolo[4,3-c]pyridin-3-yl)amino)-N-methylbenzenesulfonamide], for which the IC50 worked out at 1.4 nM in assay [1] and 0.72 nM in assay [2].

In the case of `CS(=O)(=O)c1ccc(Nc2nn(C3(CC#N)CCN(c4ccc(C(F)(F)F)cn4)CC3)c3cc[nH]c(=O)c23)cc1` [Example 15-4, 2-(4-(3-((4-(methylsulfonyl)phenyl)amino)-4-oxo-4,5-dihydro-1H-pyrazolo[4,3-c]pyridin-1-yl)-1-(5 (trifluoromethyl)pyridin-2-yl)piperidin-4-yl)acetonitrile], the IC50 in assay [1] came out at 0.55 nM; in assay [2], 0.2 nM.

As for `COCC(C)OC(=O)N1CCC(CC#N)(n2nc(Nc3ccc(S(=O)(=O)N(C)C)cc3)c3c(=O)[nH]ccc32)CC1` (stereo not drawn) [Example 11-5, 1-methoxypropan-2-yl 4-(cyanomethyl)-4-(3-((4-(N,N-dimethylsulfamoyl)phenyl)amino)-4-oxo-4,5-dihydro-1H-pyrazolo[4,3-c]pyridin-1-yl)piperidine-1-carboxylate], the IC50 in assay [1] stood at 0.61 nM; in assay [2], 0.27 nM.
